How the values were obtained:
Test in all cases: Binding assay
Details in all cases: smilagenin 1 μM
[1] = biological target: Melatonin MT2 (Homo sapiens, UniProt P49286)
Procedure: (§1) The receptor binding was investigated using the following method: Sarsasapogenin was incubated with tissue or cell homogenate that expressed the receptor of interest and a known concentration a radiolabelled compound with affinity for the receptor of interest. After the incubation period the non-bound radiolabelled compound was removed and the amount of specific binding was quantified. The amount of specific binding in the presence and absence of sarsasapogenin were compared and the percent inhibition of the binding of the radiolabelled compound by sarsasapogenin was calculated. The source of the receptor, the incubation conditions, the radiolabelled compound used varied depending on each specific assay.
(§2) Using the same methods as described above, the binding of smilagenin (1 μM) to the receptors listed in Table 2 below, and the effect of smilagenin on the activity of the enzymes listed in Table 2 below, were investigated.

[2] = biological target: Adrenomedullin AM1 (Homo sapiens, UniProt O60895+Q16602)
Procedure: as §1, §2

[3] = biological target: Somatostatin sstl (Homo sapiens, UniProt P30872)
Procedure: as §1, §2

[4] = biological target: T1, Epidermal Growth Factor (EGF) (Homo sapiens, UniProt P00533)
T1 construct: host or cells: tissue or cell homogenate (not specified)
T1 sequence (P00533 25-1210): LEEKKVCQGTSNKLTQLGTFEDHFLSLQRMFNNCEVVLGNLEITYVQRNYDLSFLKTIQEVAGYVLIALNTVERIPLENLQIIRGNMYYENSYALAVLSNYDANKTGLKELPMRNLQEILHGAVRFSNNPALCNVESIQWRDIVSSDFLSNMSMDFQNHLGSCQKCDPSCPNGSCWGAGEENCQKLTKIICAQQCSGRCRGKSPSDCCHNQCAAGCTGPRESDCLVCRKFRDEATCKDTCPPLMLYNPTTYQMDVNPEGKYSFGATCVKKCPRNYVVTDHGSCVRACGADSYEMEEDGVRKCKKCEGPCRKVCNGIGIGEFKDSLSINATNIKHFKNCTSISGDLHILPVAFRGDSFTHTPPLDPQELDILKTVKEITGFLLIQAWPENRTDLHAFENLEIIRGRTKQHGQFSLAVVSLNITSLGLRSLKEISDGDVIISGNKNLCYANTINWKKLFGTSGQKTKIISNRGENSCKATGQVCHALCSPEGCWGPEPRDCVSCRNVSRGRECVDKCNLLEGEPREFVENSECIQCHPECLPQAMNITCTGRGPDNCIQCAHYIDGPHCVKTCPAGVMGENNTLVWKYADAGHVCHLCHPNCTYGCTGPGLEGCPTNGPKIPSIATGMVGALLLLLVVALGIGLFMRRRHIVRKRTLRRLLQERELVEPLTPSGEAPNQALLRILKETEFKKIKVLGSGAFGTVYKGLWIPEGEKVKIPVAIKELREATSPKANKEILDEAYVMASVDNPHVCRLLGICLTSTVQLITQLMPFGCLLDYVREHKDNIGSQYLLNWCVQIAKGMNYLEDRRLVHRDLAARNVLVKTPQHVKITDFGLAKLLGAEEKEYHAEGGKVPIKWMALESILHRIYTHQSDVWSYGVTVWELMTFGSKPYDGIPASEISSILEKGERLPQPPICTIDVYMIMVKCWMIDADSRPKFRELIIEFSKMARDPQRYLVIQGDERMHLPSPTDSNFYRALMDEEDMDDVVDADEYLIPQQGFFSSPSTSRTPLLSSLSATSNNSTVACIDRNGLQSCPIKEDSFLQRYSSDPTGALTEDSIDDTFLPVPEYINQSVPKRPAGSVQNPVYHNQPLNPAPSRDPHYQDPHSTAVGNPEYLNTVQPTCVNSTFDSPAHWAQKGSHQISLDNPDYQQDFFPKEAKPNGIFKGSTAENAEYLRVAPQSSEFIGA
Procedure: as §1, §2

[5] = biological target: Neuromedin U MNU1 (Homo sapiens, UniProt Q9HB89)
Procedure: as §1, §2

[6] = biological target: Bombesin BB1 (Homo sapiens, UniProt P28336)
Bombesin BB1, sequence (P28336 whole entry): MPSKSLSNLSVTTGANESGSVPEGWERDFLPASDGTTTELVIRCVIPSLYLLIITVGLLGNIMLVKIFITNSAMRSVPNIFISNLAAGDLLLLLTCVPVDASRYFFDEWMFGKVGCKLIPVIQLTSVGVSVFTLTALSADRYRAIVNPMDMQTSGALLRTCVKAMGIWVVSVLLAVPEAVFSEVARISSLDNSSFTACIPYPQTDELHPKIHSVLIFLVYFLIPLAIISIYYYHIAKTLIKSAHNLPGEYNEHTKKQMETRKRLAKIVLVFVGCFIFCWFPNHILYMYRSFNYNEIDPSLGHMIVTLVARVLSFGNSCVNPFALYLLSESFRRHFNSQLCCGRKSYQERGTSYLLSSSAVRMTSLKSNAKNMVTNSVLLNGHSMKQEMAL
Procedure: as §1, §2

[7] = biological target: Neuropeptide Y Y2 (Homo sapiens, UniProt P49146)
Procedure: as §1, §2

[8] = biological target: Retanoid X Receptor RXRα (Homo sapiens, UniProt P19793)
Retanoid X Receptor RXRα, sequence (P19793 whole entry): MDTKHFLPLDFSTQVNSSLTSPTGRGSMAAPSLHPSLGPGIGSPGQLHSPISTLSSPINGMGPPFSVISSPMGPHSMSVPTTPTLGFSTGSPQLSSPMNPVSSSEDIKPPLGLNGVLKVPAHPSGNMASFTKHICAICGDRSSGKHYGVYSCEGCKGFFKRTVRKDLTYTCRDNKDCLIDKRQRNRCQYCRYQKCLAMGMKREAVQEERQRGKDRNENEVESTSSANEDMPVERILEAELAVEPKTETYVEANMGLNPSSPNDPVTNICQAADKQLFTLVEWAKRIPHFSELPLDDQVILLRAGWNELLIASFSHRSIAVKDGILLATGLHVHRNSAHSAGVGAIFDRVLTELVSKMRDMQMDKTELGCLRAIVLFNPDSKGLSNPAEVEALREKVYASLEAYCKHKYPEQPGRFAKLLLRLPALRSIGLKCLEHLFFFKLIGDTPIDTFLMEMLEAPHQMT
Procedure: as §1, §2

[9] = biological target: Prostanoid CRTH2 (Homo sapiens, UniProt Q9Y5Y4)
Procedure: as §1, §2

[10] = biological target: Tachykinin NK2 (Homo sapiens, UniProt P21452)
Procedure: as §1, §2

[11] = biological target: 5-Hydroxytryptamine, 5-HT1B (Rattus norvegicus, UniProt P28564)
5-Hydroxytryptamine, 5-HT1B, sequence (P28564 whole entry): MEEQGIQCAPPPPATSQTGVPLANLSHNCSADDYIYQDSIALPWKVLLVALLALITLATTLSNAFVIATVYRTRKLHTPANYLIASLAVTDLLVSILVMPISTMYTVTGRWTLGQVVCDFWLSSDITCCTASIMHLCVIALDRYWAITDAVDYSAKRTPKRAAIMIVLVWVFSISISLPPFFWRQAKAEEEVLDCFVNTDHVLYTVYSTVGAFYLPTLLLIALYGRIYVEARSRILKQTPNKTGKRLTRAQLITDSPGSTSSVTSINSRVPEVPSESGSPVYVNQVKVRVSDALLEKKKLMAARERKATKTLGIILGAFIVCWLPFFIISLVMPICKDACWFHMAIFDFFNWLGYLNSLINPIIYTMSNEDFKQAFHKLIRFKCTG
Procedure: as §1, §2

[12] = biological target: Cannabinoid CB2 (Homo sapiens, UniProt P34972)
Cannabinoid CB2, sequence (P34972 whole entry): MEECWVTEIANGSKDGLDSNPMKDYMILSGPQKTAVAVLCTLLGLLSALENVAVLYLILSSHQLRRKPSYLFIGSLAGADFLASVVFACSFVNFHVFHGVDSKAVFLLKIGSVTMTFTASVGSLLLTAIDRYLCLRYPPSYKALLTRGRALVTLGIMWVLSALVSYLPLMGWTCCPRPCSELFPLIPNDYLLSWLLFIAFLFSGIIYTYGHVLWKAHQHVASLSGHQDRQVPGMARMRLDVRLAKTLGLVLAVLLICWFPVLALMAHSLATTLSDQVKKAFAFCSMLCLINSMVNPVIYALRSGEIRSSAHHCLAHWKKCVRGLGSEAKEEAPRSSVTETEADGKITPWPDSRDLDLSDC
Procedure: as §1, §2

[13] = biological target: Sigma σ1 (Homo sapiens, UniProt Q99720)
Procedure: as §1, §2

[14] = biological target: Motilin (Homo sapiens, UniProt O43193)
Procedure: as §1, §2

[15] = biological target: Chemokine CCR1 (Homo sapiens, UniProt P32246)
Chemokine CCR1, sequence (P32246 whole entry): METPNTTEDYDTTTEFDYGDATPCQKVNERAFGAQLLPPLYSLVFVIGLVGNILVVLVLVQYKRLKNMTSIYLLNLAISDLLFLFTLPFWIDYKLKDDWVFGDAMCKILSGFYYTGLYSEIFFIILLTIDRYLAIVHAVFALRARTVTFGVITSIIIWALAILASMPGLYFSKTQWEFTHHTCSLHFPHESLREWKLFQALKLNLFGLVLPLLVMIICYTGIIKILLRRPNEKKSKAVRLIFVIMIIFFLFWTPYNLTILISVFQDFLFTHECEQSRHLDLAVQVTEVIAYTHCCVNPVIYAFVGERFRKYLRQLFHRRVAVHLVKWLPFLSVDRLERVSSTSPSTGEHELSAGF
Procedure: as §1, §2

[16] = biological target: T2, Vasoactive Intestinal Peptide, VIP1 (Homo sapiens, UniProt P32241)
T2 construct: host or cells: tissue or cell homogenate, not specified
Procedure: as §1, §2

[17] = biological target: Adrenergic α2C (Homo sapiens, UniProt P18825)
Procedure: as §1, §2

[18] = biological target: Bradykinin B1 (Homo sapiens, UniProt P46663)
Procedure: as §1, §2

[19] = biological target: T3, Muscarinic M1 (Homo sapiens, UniProt P11229)
T3 construct: host or cells: tissue or cell homogenate, not specified
Procedure: as §1, §2

[20] = biological target: Interleukin IL-1 (Mus musculus, UniProt P13504)
Procedure: as §1, §2

[21] = biological target: Sigma σ2 (Rattus norvegicus, UniProt Q5U3Y7)
Sigma σ2, sequence (Q5U3Y7 whole entry): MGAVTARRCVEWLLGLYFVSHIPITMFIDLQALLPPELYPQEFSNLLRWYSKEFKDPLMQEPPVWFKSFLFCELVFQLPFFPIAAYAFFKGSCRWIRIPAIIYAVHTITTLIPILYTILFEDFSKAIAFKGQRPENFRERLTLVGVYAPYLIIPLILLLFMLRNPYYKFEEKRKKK
Procedure: as §1, §2

[22] = biological target: Progesterone PR-B (Homo sapiens, UniProt P06401)
Procedure: as §1, §2

[23] = biological target: Transporter, Choline (Rattus norvegicus, UniProt Q9JMD7)
Procedure: as §1, §2

[24] = biological target: Adrenergic β2 (Homo sapiens, UniProt P07550)
Procedure: as §1, §2

[25] = biological target: Interleukin IL-6 (Homo sapiens, UniProt P08887)
Interleukin IL-6, sequence (P08887 20-468): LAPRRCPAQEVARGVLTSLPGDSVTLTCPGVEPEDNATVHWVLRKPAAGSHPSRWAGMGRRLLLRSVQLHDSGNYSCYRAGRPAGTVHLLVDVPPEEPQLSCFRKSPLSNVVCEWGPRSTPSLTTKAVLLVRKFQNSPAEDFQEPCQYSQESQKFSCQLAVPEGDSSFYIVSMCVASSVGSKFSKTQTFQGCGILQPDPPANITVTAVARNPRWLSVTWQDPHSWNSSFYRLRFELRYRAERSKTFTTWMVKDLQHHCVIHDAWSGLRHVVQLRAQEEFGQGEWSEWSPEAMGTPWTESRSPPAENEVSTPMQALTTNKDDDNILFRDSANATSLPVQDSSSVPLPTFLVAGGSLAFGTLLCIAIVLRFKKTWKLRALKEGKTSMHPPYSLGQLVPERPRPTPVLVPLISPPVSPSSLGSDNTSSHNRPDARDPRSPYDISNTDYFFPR
Procedure: as §1, §2

[26] = biological target: Chemokine CCR2B (Homo sapiens, UniProt P41597)
Procedure: as §1, §2

[27] = biological target: T4, Oestrogen (Erβ) (Homo sapiens, UniProt Q92731)
T4 construct: host or cells: tissue or cell homogenate (not specified)
Procedure: as §1, §2

[28] = biological target: Orphanin ORL1 (Homo sapiens, UniProt P41146)
Procedure: as §1, §2

[29] = biological target: T5, Histamine H1 (Homo sapiens, UniProt P35367)
T5 construct: host or cells: tissue or cell homogenate (not specified)
Procedure: as §1, §2

[30] = biological target: Cholecystokinin CCK1 (CCKA) (Homo sapiens, UniProt P32238)
Procedure: as §1, §2

[31] = biological target: Neuromedin U MNU2 (Homo sapiens, UniProt Q9GZQ4)
Procedure: as §1, §2

[32] = biological target: Prostanoid Thromboxane A2 (TP) (Homo sapiens, UniProt P21731)
Prostanoid Thromboxane A2 (TP), sequence (P21731 whole entry): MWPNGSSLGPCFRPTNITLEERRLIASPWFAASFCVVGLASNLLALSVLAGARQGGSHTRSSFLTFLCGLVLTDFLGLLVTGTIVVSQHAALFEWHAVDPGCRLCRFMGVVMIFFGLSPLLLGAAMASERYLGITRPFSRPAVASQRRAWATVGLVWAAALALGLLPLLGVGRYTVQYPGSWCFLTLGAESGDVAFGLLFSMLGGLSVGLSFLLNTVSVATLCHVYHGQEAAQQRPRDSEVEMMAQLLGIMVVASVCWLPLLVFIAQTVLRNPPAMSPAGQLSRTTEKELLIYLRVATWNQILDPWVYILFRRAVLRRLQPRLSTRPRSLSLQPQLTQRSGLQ
Procedure: as §1, §2

[33] = biological target: Leukotriene, Cysteinyl CysLT1 (Homo sapiens, UniProt Q9Y271)
Procedure: as §1, §2

[34] = biological target: Leukotriene, BLT (LTB4) (Homo sapiens, UniProt Q15722)
Leukotriene, BLT (LTB4), sequence (Q15722 whole entry): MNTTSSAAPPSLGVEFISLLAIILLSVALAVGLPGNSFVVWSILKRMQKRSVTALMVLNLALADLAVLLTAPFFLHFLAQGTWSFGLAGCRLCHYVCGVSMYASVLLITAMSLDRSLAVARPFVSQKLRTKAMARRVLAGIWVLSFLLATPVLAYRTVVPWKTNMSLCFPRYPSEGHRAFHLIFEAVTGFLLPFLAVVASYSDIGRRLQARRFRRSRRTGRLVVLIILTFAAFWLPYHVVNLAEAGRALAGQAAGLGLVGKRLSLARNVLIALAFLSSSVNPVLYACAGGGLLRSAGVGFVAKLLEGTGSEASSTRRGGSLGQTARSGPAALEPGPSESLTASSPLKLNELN
Procedure: as §1, §2

[35] = biological target: T6, Vasopressin V2 (Homo sapiens, UniProt P30518)
T6 construct: host or cells: tissue or cell homogenate, not specified
T6 sequence (P30518 whole entry): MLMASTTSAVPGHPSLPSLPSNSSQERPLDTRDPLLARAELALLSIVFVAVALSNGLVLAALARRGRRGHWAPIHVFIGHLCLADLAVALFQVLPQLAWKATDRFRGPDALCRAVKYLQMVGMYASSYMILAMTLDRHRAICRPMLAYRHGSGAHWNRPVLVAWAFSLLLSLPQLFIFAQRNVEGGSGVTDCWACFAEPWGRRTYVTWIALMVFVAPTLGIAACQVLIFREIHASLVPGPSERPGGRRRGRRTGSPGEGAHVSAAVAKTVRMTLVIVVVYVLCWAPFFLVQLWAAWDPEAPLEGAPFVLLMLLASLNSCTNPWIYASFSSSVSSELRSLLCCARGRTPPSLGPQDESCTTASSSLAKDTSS
Procedure: as §1, §2

[36] = biological target: Dopamine D5 (Homo sapiens, UniProt P21918)
Procedure: as §1, §2

Question: C[C@@H]1CC[C@@]2(OC1)O[C@H]1C[C@H]3[C@@H]4CC[C@@H]5C[C@@H](O)CC[C@]5(C)[C@H]4CC[C@]3(C)[C@H]1[C@@H]2C [Smilagenin, smilagenin] was tested. Which “Effect (%)” value [1] did it give?
Answer: NS (NS = No significant response. Significance was taken as ≧30% stimulation or inhibition)

Question: And the “Effect (%)” value [2]?
Answer: NS (NS = No significant response. Significance was taken as ≧30% stimulation or inhibition)

Question: What about the “Effect (%)” value [3] of the same compound?
Answer: NS (NS = No significant response. Significance was taken as ≧30% stimulation or inhibition)

Question: What about the “Effect (%)” value [4] of the same compound?
Answer: NS (NS = No significant response. Significance was taken as ≧30% stimulation or inhibition)

Question: What about the “Effect (%)” value [5] of the same compound?
Answer: NS (NS = No significant response. Significance was taken as ≧30% stimulation or inhibition)

Question: And the “Effect (%)” value [6]?
Answer: NS (NS = No significant response. Significance was taken as ≧30% stimulation or inhibition)

Question: What about the “Effect (%)” value [7] of the same compound?
Answer: NS (NS = No significant response. Significance was taken as ≧30% stimulation or inhibition)

Question: What about the “Effect (%)” value [8] of the same compound?
Answer: NS (NS = No significant response. Significance was taken as ≧30% stimulation or inhibition)

Question: What about the “Effect (%)” value [9] of the same compound?
Answer: NS (NS = No significant response. Significance was taken as ≧30% stimulation or inhibition)

Question: What about the “Effect (%)” value [10] of the same compound?
Answer: NS (NS = No significant response. Significance was taken as ≧30% stimulation or inhibition)

Question: What about the “Effect (%)” value [11] of the same compound?
Answer: NS (NS = No significant response. Significance was taken as ≧30% stimulation or inhibition)

Question: What about the “Effect (%)” value [12] of the same compound?
Answer: NS (NS = No significant response. Significance was taken as ≧30% stimulation or inhibition)

Question: What about the “Effect (%)” value [13] of the same compound?
Answer: NS (NS = No significant response. Significance was taken as ≧30% stimulation or inhibition)

Question: What about the “Effect (%)” value [14] of the same compound?
Answer: NS (NS = No significant response. Significance was taken as ≧30% stimulation or inhibition)

Question: And the “Effect (%)” value [15]?
Answer: NS (NS = No significant response. Significance was taken as ≧30% stimulation or inhibition)

Question: What about the “Effect (%)” value [16] of the same compound?
Answer: NS (NS = No significant response. Significance was taken as ≧30% stimulation or inhibition)

Question: What about the “Effect (%)” value [17] of the same compound?
Answer: NS (NS = No significant response. Significance was taken as ≧30% stimulation or inhibition)

Question: And the “Effect (%)” value [18]?
Answer: NS (NS = No significant response. Significance was taken as ≧30% stimulation or inhibition)

Question: And the “Effect (%)” value [19]?
Answer: NS (NS = No significant response. Significance was taken as ≧30% stimulation or inhibition)

Question: What about the “Effect (%)” value [20] of the same compound?
Answer: NS (NS = No significant response. Significance was taken as ≧30% stimulation or inhibition)

Question: What about the “Effect (%)” value [21] of the same compound?
Answer: NS (NS = No significant response. Significance was taken as ≧30% stimulation or inhibition)

Question: And the “Effect (%)” value [22]?
Answer: NS (NS = No significant response. Significance was taken as ≧30% stimulation or inhibition)

Question: What about the “Effect (%)” value [23] of the same compound?
Answer: NS (NS = No significant response. Significance was taken as ≧30% stimulation or inhibition)

Question: What about the “Effect (%)” value [24] of the same compound?
Answer: NS (NS = No significant response. Significance was taken as ≧30% stimulation or inhibition)

Question: And the “Effect (%)” value [25]?
Answer: NS (NS = No significant response. Significance was taken as ≧30% stimulation or inhibition)

Question: And the “Effect (%)” value [26]?
Answer: NS (NS = No significant response. Significance was taken as ≧30% stimulation or inhibition)

Question: And the “Effect (%)” value [27]?
Answer: NS (NS = No significant response. Significance was taken as ≧30% stimulation or inhibition)

Question: What about the “Effect (%)” value [28] of the same compound?
Answer: NS (NS = No significant response. Significance was taken as ≧30% stimulation or inhibition)

Question: And the “Effect (%)” value [29]?
Answer: NS (NS = No significant response. Significance was taken as ≧30% stimulation or inhibition)

Question: And the “Effect (%)” value [30]?
Answer: NS (NS = No significant response. Significance was taken as ≧30% stimulation or inhibition)

Question: What about the “Effect (%)” value [31] of the same compound?
Answer: NS (NS = No significant response. Significance was taken as ≧30% stimulation or inhibition)

Question: And the “Effect (%)” value [32]?
Answer: NS (NS = No significant response. Significance was taken as ≧30% stimulation or inhibition)

Question: What about the “Effect (%)” value [33] of the same compound?
Answer: NS (NS = No significant response. Significance was taken as ≧30% stimulation or inhibition)

Question: What about the “Effect (%)” value [34] of the same compound?
Answer: NS (NS = No significant response. Significance was taken as ≧30% stimulation or inhibition)

Question: What about the “Effect (%)” value [35] of the same compound?
Answer: NS (NS = No significant response. Significance was taken as ≧30% stimulation or inhibition)

Question: What about the “Effect (%)” value [36] of the same compound?
Answer: NS (NS = No significant response. Significance was taken as ≧30% stimulation or inhibition)

Reference: patent US20120034193A1, “TREATMENT OF NEUROTROPHIC FACTOR MEDIATED DISORDERS” (priority 2009, published 2012)
